Experimental data taken from the NIST ThermoML archive (doi:10.1021/je049743g).
“And” between values parts separate entries of the source, which are not always exact repeats. Identical values can stand only once. ± gives the expanded uncertainty stated by the source.

Assay: wn = mass fraction of the nth substance listed
Conditions: Capillary rise

For `FC(C(F)(F)F)C(F)(F)F` [1,1,1,2,3,3,3-heptafluoropropane] + FCF, the surface tension liquid-gas (293.83 K, w2 = 0.3843) was 6.74 ± 0.3 mN/m, the surface tension liquid-gas (293.91 K, w2 = 0.7179) was 7.04 ± 0.3 mN/m and 7.05 ± 0.3 mN/m and the surface tension liquid-gas (295.16 K, w2 = 0.3381) was 6.6 ± 0.3 mN/m. The surface tension liquid-gas (295.43 K, w2 = 0.2853) was 6.55 ± 0.3 mN/m, the surface tension liquid-gas (295.48 K, w2 = 0.2853) was 6.53 ± 0.3 mN/m and the surface tension liquid-gas (295.5 K, w2 = 0.7173) was 6.81 ± 0.3 mN/m and 6.83 ± 0.3 mN/m. For the same compound, the surface tension liquid-gas (295.61 K, w2 = 0.5282) was 6.53 ± 0.3 mN/m, the surface tension liquid-gas (296.02 K, w2 = 0.3832) was 6.41 ± 0.3 mN/m and 6.4 ± 0.3 mN/m and the surface tension liquid-gas (296.82 K, w2 = 0.3372) was 6.36 ± 0.3 mN/m. The surface tension liquid-gas (297.36 K, w2 = 0.3826) was 6.2 ± 0.3 mN/m, the surface tension liquid-gas (297.42 K, w2 = 0.2844) was 6.35 ± 0.3 mN/m and 6.32 ± 0.3 mN/m and the surface tension liquid-gas (297.68 K, w2 = 0.5271) was 6.29 ± 0.3 mN/m. For the same compound, the surface tension liquid-gas (297.86 K, w2 = 0.3366) was 6.21 ± 0.3 mN/m, the surface tension liquid-gas (299.17 K, w2 = 0.3817) was 6.01 ± 0.3 mN/m and the surface tension liquid-gas (299.22 K, w2 = 0.2835) was 6.13 ± 0.3 mN/m and 6.1 ± 0.3 mN/m. The surface tension liquid-gas (299.29 K, w2 = 0.3358) was 6.06 ± 0.3 mN/m and 6.07 ± 0.3 mN/m, the surface tension liquid-gas (299.5 K, w2 = 0.7156) was 6.17 ± 0.3 mN/m and the surface tension liquid-gas (299.8 K, w2 = 0.5259) was 6.04 ± 0.3 mN/m and 6.03 ± 0.3 mN/m. The surface tension liquid-gas (301.27 K, w2 = 0.3346) was 5.76 ± 0.3 mN/m, the surface tension liquid-gas (301.41 K, w2 = 0.2825) was 5.8 ± 0.3 mN/m and 5.82 ± 0.3 mN/m and the surface tension liquid-gas (301.58 K, w2 = 0.5249) was 5.78 ± 0.3 mN/m and 5.77 ± 0.3 mN/m. The surface tension liquid-gas (301.63 K, w2 = 0.7146) was 5.9 ± 0.3 mN/m, the surface tension liquid-gas (301.75 K, w2 = 0.3803) was 5.66 ± 0.3 mN/m and 5.69 ± 0.3 mN/m and the surface tension liquid-gas (303.27 K, w2 = 0.3335) was 5.52 ± 0.3 mN/m. The surface tension liquid-gas (303.33 K, w2 = 0.3795) was 5.49 ± 0.3 mN/m and 5.54 ± 0.3 mN/m, the surface tension liquid-gas (303.46 K, w2 = 0.2815) was 5.55 ± 0.3 mN/m and the surface tension liquid-gas (303.55 K, w2 = 0.7137) was 5.59 ± 0.3 mN/m. For the same compound, the surface tension liquid-gas (303.87 K, w2 = 0.5235) was 5.48 ± 0.3 mN/m and 5.44 ± 0.3 mN/m, the surface tension liquid-gas (305.17 K, w2 = 0.3785) was 5.35 ± 0.3 mN/m and 5.33 ± 0.3 mN/m and the surface tension liquid-gas (305.26 K, w2 = 0.3323) was 5.3 ± 0.3 mN/m and 5.29 ± 0.3 mN/m. The surface tension liquid-gas (305.28 K, w2 = 0.2805) was 5.35 ± 0.3 mN/m and 5.37 ± 0.3 mN/m, the surface tension liquid-gas (305.75 K, w2 = 0.7126) was 5.34 ± 0.3 mN/m and the surface tension liquid-gas (306.29 K, w2 = 0.5221) was 5.16 ± 0.3 mN/m and 5.13 ± 0.3 mN/m. The surface tension liquid-gas (307.23 K, w2 = 0.3774) was 5.01 ± 0.3 mN/m and 5.06 ± 0.3 mN/m, the surface tension liquid-gas (307.24 K, w2 = 0.3311) was 5.08 ± 0.3 mN/m and the surface tension liquid-gas (307.36 K, w2 = 0.7118) was 5.04 ± 0.3 mN/m. For the same compound, the surface tension liquid-gas (307.39 K, w2 = 0.5214) was 4.94 ± 0.3 mN/m, the surface tension liquid-gas (307.96 K, w2 = 0.2792) was 5.04 ± 0.3 mN/m and 5.05 ± 0.3 mN/m and the surface tension liquid-gas (309.18 K, w2 = 0.3299) was 4.8 ± 0.3 mN/m. For the same compound, the surface tension liquid-gas (309.34 K, w2 = 0.2785) was 4.87 ± 0.3 mN/m and 4.85 ± 0.3 mN/m, the surface tension liquid-gas (309.43 K, w2 = 0.7107) was 4.7 ± 0.3 mN/m and the surface tension liquid-gas (309.63 K, w2 = 0.3761) was 4.63 ± 0.3 mN/m and 4.67 ± 0.3 mN/m. For the same compound, the surface tension liquid-gas (309.81 K, w2 = 0.5198) was 4.64 ± 0.3 mN/m and 4.63 ± 0.3 mN/m, the surface tension liquid-gas (311.24 K, w2 = 0.3286) was 4.61 ± 0.3 mN/m and the surface tension liquid-gas (311.26 K, w2 = 0.3752) was 4.45 ± 0.3 mN/m and 4.48 ± 0.3 mN/m. The surface tension liquid-gas (311.28 K, w2 = 0.7097) was 4.51 ± 0.3 mN/m, the surface tension liquid-gas (311.62 K, w2 = 0.2773) was 4.59 ± 0.3 mN/m and 4.55 ± 0.3 mN/m and the surface tension liquid-gas (311.74 K, w2 = 0.5186) was 4.38 ± 0.3 mN/m and 4.36 ± 0.3 mN/m. The surface tension liquid-gas (313.21 K, w2 = 0.374) was 4.26 ± 0.3 mN/m and 4.22 ± 0.3 mN/m, the surface tension liquid-gas (313.22 K, w2 = 0.2764) was 4.42 ± 0.3 mN/m and the surface tension liquid-gas (313.26 K, w2 = 0.7086) was 4.22 ± 0.3 mN/m. The surface tension liquid-gas (313.35 K, w2 = 0.5175) was 4.15 ± 0.3 mN/m and 4.17 ± 0.3 mN/m, the surface tension liquid-gas (313.51 K, w2 = 0.3271) was 4.32 ± 0.3 mN/m and the surface tension liquid-gas (315.28 K, w2 = 0.326) was 4.12 ± 0.3 mN/m and 4.13 ± 0.3 mN/m. For the same compound, the surface tension liquid-gas (315.3 K, w2 = 0.3728) was 4.06 ± 0.3 mN/m and 4.09 ± 0.3 mN/m, the surface tension liquid-gas (315.39 K, w2 = 0.7074) was 3.96 ± 0.3 mN/m and the surface tension liquid-gas (315.43 K, w2 = 0.2752) was 4.14 ± 0.3 mN/m and 4.13 ± 0.3 mN/m. For the same compound, the surface tension liquid-gas (315.61 K, w2 = 0.5159) was 3.88 ± 0.3 mN/m, the surface tension liquid-gas (317.24 K, w2 = 0.3247) was 3.88 ± 0.3 mN/m and the surface tension liquid-gas (317.3 K, w2 = 0.7064) was 3.7 ± 0.3 mN/m. For the same compound, the surface tension liquid-gas (317.43 K, w2 = 0.2742) was 3.91 ± 0.3 mN/m and 3.89 ± 0.3 mN/m, the surface tension liquid-gas (317.69 K, w2 = 0.5145) was 3.61 ± 0.3 mN/m and 3.63 ± 0.3 mN/m and the surface tension liquid-gas (318.29 K, w2 = 0.371) was 3.63 ± 0.3 mN/m and 3.62 ± 0.3 mN/m. The surface tension liquid-gas (319.25 K, w2 = 0.3234) was 3.64 ± 0.3 mN/m, the surface tension liquid-gas (319.52 K, w2 = 0.705) was 3.38 ± 0.3 mN/m and the surface tension liquid-gas (319.58 K, w2 = 0.273) was 3.7 ± 0.3 mN/m and 3.67 ± 0.3 mN/m. For the same compound, the surface tension liquid-gas (319.63 K, w2 = 0.3702) was 3.5 ± 0.3 mN/m, the surface tension liquid-gas (320 K, w2 = 0.5129) was 3.33 ± 0.3 mN/m and 3.32 ± 0.3 mN/m and the surface tension liquid-gas (321.27 K, w2 = 0.3692) was 3.29 ± 0.3 mN/m. The surface tension liquid-gas (321.3 K, w2 = 0.322) was 3.39 ± 0.3 mN/m and 3.38 ± 0.3 mN/m, the surface tension liquid-gas (321.31 K, w2 = 0.7039) was 3.12 ± 0.3 mN/m and the surface tension liquid-gas (321.42 K, w2 = 0.5118) was 3.13 ± 0.3 mN/m and 3.14 ± 0.3 mN/m. For the same compound, the surface tension liquid-gas (321.54 K, w2 = 0.2719) was 3.45 ± 0.3 mN/m and 3.42 ± 0.3 mN/m, the surface tension liquid-gas (323.2 K, w2 = 0.3207) was 3.23 ± 0.3 mN/m and the surface tension liquid-gas (323.5 K, w2 = 0.7025) was 2.88 ± 0.3 mN/m and 2.87 ± 0.3 mN/m. The surface tension liquid-gas (323.69 K, w2 = 0.2707) was 3.19 ± 0.3 mN/m, the surface tension liquid-gas (323.72 K, w2 = 0.5102) was 2.92 ± 0.3 mN/m and the surface tension liquid-gas (323.76 K, w2 = 0.3677) was 3.03 ± 0.3 mN/m and 3.01 ± 0.3 mN/m. It also gave a surface tension liquid-gas (325.23 K, w2 = 0.3193) of 3.04 ± 0.3 mN/m, a surface tension liquid-gas (325.29 K, w2 = 0.3668) of 2.85 ± 0.3 mN/m and a surface tension liquid-gas (325.3 K, w2 = 0.7013) of 2.63 ± 0.3 mN/m. For the same compound, the surface tension liquid-gas (325.42 K, w2 = 0.2697) was 2.96 ± 0.3 mN/m and 2.95 ± 0.3 mN/m, the surface tension liquid-gas (325.89 K, w2 = 0.5085) was 2.57 ± 0.3 mN/m and 2.59 ± 0.3 mN/m and the surface tension liquid-gas (327.16 K, w2 = 0.2688) was 2.8 ± 0.3 mN/m and 2.78 ± 0.3 mN/m. For the same compound, the surface tension liquid-gas (327.31 K, w2 = 0.3656) was 2.59 ± 0.3 mN/m and 2.58 ± 0.3 mN/m, the surface tension liquid-gas (327.31 K, w2 = 0.7) was 2.43 ± 0.3 mN/m and 2.44 ± 0.3 mN/m and the surface tension liquid-gas (327.4 K, w2 = 0.3179) was 2.74 ± 0.3 mN/m and 2.73 ± 0.3 mN/m. The surface tension liquid-gas (327.68 K, w2 = 0.5072) was 2.37 ± 0.3 mN/m and 2.38 ± 0.3 mN/m, the surface tension liquid-gas (329.3 K, w2 = 0.3166) was 2.54 ± 0.3 mN/m and the surface tension liquid-gas (329.34 K, w2 = 0.6987) was 2.15 ± 0.3 mN/m and 2.16 ± 0.3 mN/m. The surface tension liquid-gas (329.35 K, w2 = 0.5059) was 2.18 ± 0.3 mN/m and 2.19 ± 0.3 mN/m, the surface tension liquid-gas (329.37 K, w2 = 0.2676) was 2.6 ± 0.3 mN/m and 2.59 ± 0.3 mN/m and the surface tension liquid-gas (329.44 K, w2 = 0.3643) was 2.43 ± 0.3 mN/m. It also gave a surface tension liquid-gas (331.47 K, w2 = 0.5043) of 2.01 ± 0.3 mN/m, a surface tension liquid-gas (331.57 K, w2 = 0.315) of 2.24 ± 0.3 mN/m and a surface tension liquid-gas (331.61 K, w2 = 0.6971) of 1.87 ± 0.3 mN/m. The surface tension liquid-gas (331.65 K, w2 = 0.2663) was 2.36 ± 0.3 mN/m and 2.37 ± 0.3 mN/m, the surface tension liquid-gas (331.73 K, w2 = 0.3629) was 2.15 ± 0.3 mN/m and the surface tension liquid-gas (333.37 K, w2 = 0.2654) was 2.19 ± 0.3 mN/m. It also gave a surface tension liquid-gas (333.4 K, w2 = 0.3138) of 2.06 ± 0.3 mN/m, a surface tension liquid-gas (333.48 K, w2 = 0.3618) of 1.95 ± 0.3 mN/m and a surface tension liquid-gas (333.48 K, w2 = 0.6959) of 1.63 ± 0.3 mN/m. For the same compound, the surface tension liquid-gas (333.55 K, w2 = 0.5028) was 1.75 ± 0.3 mN/m and 1.72 ± 0.3 mN/m.
